The compounds below were run on Primary adult CD34+ human hematopoietic stem cells (HSCs) (assay: % CD34+ assay: HSC expansion screen, dose response). Conditions: Homo sapiens, Hematopoietic stem cell; dose response 1 nM to 10 μM; total number and/or percent of CD34+ cells.
Assay type: cell-based
Protocol: Primary adult CD34^+ human hematopoietic stem cells (HSCs) are cultured and screened to identify compounds of the invention that facilitate HSC expansion. The cells are analyzed for the presence of the desired phenotype (CD34 expression). Compounds of the invention promote HSC expansion in a dose dependent manner.
Culture Medium: StemSpan SFEM medium is serum-free medium (StemCell Technologies, Vancouver, BC) supplemented with the following human recombinant cytokines: thrombopoietin, interleukin-6, Flt-3 ligand, and stem cell factor (all from R&D Systems, Minneapolis, Minn.), each at a final concentration of 50 ng/mL, with vehicle (DMSO) or a compound of the invention.
Human Cell Culture: Fresh human leukophoresed G-CSF mobilized peripheral blood from normal donors, CD34^+ cells from adult bone marrow and cryopreserved human cord blood CD34^+ cells are purchased from AllCells (Berkeley, Calif.). Human CD34^+ cells are enriched from leukophoresed G-CSF mobilized peripheral blood using magnetic cell sorting (MACS, Direct CD34 Progenitor Cell Isolation Kit, Miltenyi Biotec, Bergisch Gladbach, Germany) and cryopreserved. CD34^+ cell purity, checked by flow Cytometry, is higher than 90%. After thawing, the cell viability tested by trypan blue exclusion is higher than 70%. The thawed cells are centrifuged and resuspended with StemSpan medium before being aliquoted for immediate culture. Cells are plated at 10^4 cells/mL in a 384 well plate (Greiner Bio-One, Monroe, N.C.) with 50 μL of medium per well for 7 days. Every 7 days the cells are transferred to larger well plates and fresh medium is added to keep the cell density between 10^4 and 5×10^5 cells/mL. Cells were cultured at 37° C. in 5% CO2. For transplantation, cells were cultured in 75 cm^2 flasks before the cells were transplanted into mice. At a concentration of 1 micromolar, 4-(2-(2-(benzo[b]thiophen-3-yl)-9-isopropyl-9H-purin-6-ylamino)ethyl)phenol (compound 1, table 1; example 1), 4-(2-(2-(benzo[b]thiophen-3-yl)-9-sec-butyl-9H-purin-6-ylamino)ethyl)phenol (compound 2, table 1), and N-(2-(1H-indol-3-yl)ethyl)-2-(benzo[b]thiophen-3-yl)-9-isopropyl-9H-purin-6-amine (compound 9, table 1) each gives rise to a greater than 10-fold increase in the number of CD34^+ CD45RA^− cells derived from 1000 mPB CD34^+ HSCs after 21 days compared to vehicle. Compounds of the invention were assayed in a dose response format (1 nM to 10 μM) to determine the effective concentration that produced the desired effect in 50% of the cells (EC50).
For CC[C@H](C)n1cnc2c(NCCc3c[nH]c4ccccc34)nc(-c3cncc(C)c3)nc21 [Example 131S], the EC50 was 3 nM. CC(C)n1cnc2c(NCCCc3cn[nH]c3)nc(-c3csc4ccccc34)nc21 [Example 84] gave an EC50 of 5400 nM. COc1ccc2[nH]cc(CCNc3nc(-c4cncc(F)c4)nc4c3ncn4C(C)C)c2c1 [Example 172] was tested, and the EC50 was 420 nM. For CC(C)n1cnc2c(NCCc3ccc(O)cc3)nc(-c3ccnnc3)nc21 [Example 42], the EC50 was 640 nM. CC(C)n1cnc2c(NCc3ccc4[nH]c(=O)[nH]c4c3)nc(-c3csc4ccccc34)nc21 [Example 90] showed an EC50 of 3300 nM. CC(C)n1ccc2c(NCCc3ccc(O)cc3)nc(-c3cncc(F)c3)nc21 [Example 141, 4-(2-(2-(5-Fluoropyridin-3-yl)-7-isopropyl-7H-pyrrolo[2,3-d]pyrimidin-4-ylamino)ethyl)phenol] gave an EC50 of 160 nM. Cc1cncc(-c2nc(NCCc3c[nH]c4ccccc34)c3ncn(C4COC4)c3n2)c1 [Example 187] showed an EC50 of 34 nM. In the case of CC[C@H](C)n1cnc2c(NCCc3c[nH]c4ccccc34)nc(-c3cncc(F)c3)nc21 [Example 132S], the EC50 is reported as 2 nM. CC(C)n1cnc2c(NCCc3ccc(F)cc3)nc(-c3csc4ccccc34)nc21 [Example 12] gave an EC50 of 1760 nM. CC(C)n1cnc2c(NCCc3ccc(O)cc3)nc(-c3cncnc3)nc21 [Example 14] showed an EC50 of 170 nM. Work on Cc1ncn(-c2nc(NCCc3ccc(O)cc3)c3ncn(C(C)C)c3n2)c1C [Example 162] yielded an EC50 of 140 nM. CC(CO)n1cnc2c(NCCc3ccc(O)cc3)nc(-c3cccnc3)nc21 (stereo not shown) [Example 113] was tested, and the EC50 was 540 nM. Work on Cc1nccn1-c1nc(NCCc2c[nH]c3ccccc23)c2ncn(C(C)C)c2n1 [Example 184] yielded an EC50 of 8 nM. CC(C)n1c(-c2ccc(-c3ccccc3)cc2)nc2c(NCc3ccccc3)ncnc21 [Example 20] was tested, and the EC50 was 7800 nM. With CC(C)n1cnc2c(NCCc3n[nH]c4ccccc34)nc(-c3cccnc3)nc21 [Example 98] the EC50 was 8200 nM. For C[C@@H](CO)n1cnc2c(NCCc3c[nH]c4ccccc34)nc(-c3cncc(F)c3)nc21 [Example 157S, (S)-2-(6-(2-(1H-indol-3-yl)ethylamino)-2-(5-fluoropyridin-3-yl)-9H-purin-9-yl)propan-1-ol], the EC50 was 3 nM. Work on CC(C)n1cnc2c(NCCc3c[nH]c4ncccc34)nc(-c3cncc(F)c3)nc21 [Example 175] yielded an EC50 of 420 nM. Work on CC(C)n1cnc2c(NCCc3ccc(O)cc3)nc(-c3cncc(Cl)c3)nc21 [Example 128, 4-(2-(2-(5-Chloropyridin-3-yl)-9-isopropyl-9H-purin-6-ylamino)ethyl)phenol] yielded an EC50 of 19 nM. C=C(C)n1cnc2c(NCCc3c[nH]c4ccccc34)nc(-c3cncc(F)c3)nc21 [Example 173] gave an EC50 of 12 nM. CCC(C)n1cnc2c(NCCc3ccc(O)c(C)c3)nc(-c3cncc(C#N)c3)nc21 (stereo not shown) [Example 124] was tested, and the EC50 was 3 nM. Work on Cc1[nH]c2ccccc2c1CCNc1nc(-c2cncc(F)c2)nc2c1ncn2C(C)C [Example 190] yielded an EC50 of 5 nM. Cc1ccc(Cn2cnc3c(NCCc4ccc(O)cc4)nc(-c4csc5ccccc45)nc32)cc1 [Example 8] gave an EC50 of 6030 nM. Compound COc1ccc2c(CCNc3nc(-c4cncc(F)c4)nc4c3ncn4C(C)C)c[nH]c2c1 [Example 169] has an EC50 of 44 nM. CC(C)n1cnc2c(NCCc3c[nH]c4ccccc34)nc(-c3csc4ccccc34)nc21 [Example 9, N-(2-(1H-indol-3-yl)ethyl)-2-(benzo[b]thiophen-3-yl)-9-isopropyl-9H-purin-6-amine] showed an EC50 of 20 nM. Compound Cc1ccc2c(CCNc3nc(-c4cncc(F)c4)nc4c3ncn4C(C)C)c[nH]c2c1 [Example 189] has an EC50 of 26 nM. CC(C)n1cnc2c(NCCc3ccc(O)cc3)nc(-c3cnccc3Cl)nc21 [Example 48] showed an EC50 of 510 nM. For CC(C)n1cnc2c(NCCc3ccc(O)cc3)nc(-c3cncc4ccccc34)nc21 [Example 145], the EC50 was 5400 nM. Compound CCC(C)n1cnc2c(NCCc3c[nH]c4ccccc34)nc(-c3csc4ccccc34)nc21 (stereo not shown) [Example 23] has an EC50 of 19 nM. Work on CC(C)n1cnc2c(NCCc3n[nH]c(N)n3)nc(-c3csc4ccccc34)nc21 [Example 82] yielded an EC50 of 7900 nM. Work on CC(C)n1cnc2c(NCCc3ccc(O)cc3)nc(-c3ccsc3)nc21 [Example 17] yielded an EC50 of 970 nM. In the case of CC(C)n1cnc2c(NCCc3ccc(O)cc3)nc(-c3ccc(C#N)nc3)nc21 [Example 139], the EC50 is reported as 1300 nM. Cc1nccn1-c1nc(NCCc2ccc(O)cc2)c2ncn(C(C)C)c2n1 [Example 123, 4-(2-(9-Isopropyl-2-(2-methyl-1H-imidazol-1-yl)-9H-purin-6-ylamino)ethyl)phenol] gave an EC50 of 66 nM. For CCC(C)n1cnc2c(NCCc3c[nH]c4ccccc34)nc(-c3cncc(C)c3)nc21 (stereo not shown) [Example 131], the EC50 was 4 nM. Work on CC(C)n1cnc2c(NCCN3CCNC3=O)nc(-c3cccnc3)nc21 [Example 70] yielded an EC50 of 2700 nM. Compound CC(C)n1cnc2c(NCCc3ccc(O)cc3)nc(-n3cnc4cccnc43)nc21 [Example 159] has an EC50 of 590 nM. For COc1ccc2c(CCNc3nc(-c4cccnc4)nc4c3ncn4C(C)C)c[nH]c2c1 [Example 61], the EC50 was 130 nM. For Oc1ccc(CCNc2nc(-c3csc4ccccc34)nc3c2ncn3C(c2ccccc2)c2ccccc2)cc1 [Example 3], the EC50 was 150 nM. CC(C)n1cnc2c(NCCc3ccc(O)cc3)nc(-c3cncc(C(F)(F)F)c3)nc21 [Example 129] showed an EC50 of 120 nM. CC(C)n1cnc2c(NCCc3ccc(O)cc3)nc(-c3ccccc3)nc21 [Example 16] was tested, and the EC50 was 460 nM. In the case of Cc1cc(O)ccc1CCNc1nc(-c2cccnc2)nc2c1ncn2C(C)C [Example 138], the EC50 is reported as 400 nM. CC(C)n1cnc2c(NCCc3ccc(O)nc3)nc(-c3cncc(F)c3)nc21 [Example 174] showed an EC50 of 2200 nM. C[C@H](CO)n1cnc2c(NCCc3c[nH]c4ccccc34)nc(-c3cncc(F)c3)nc21 [Example 157R, (R)-2-(6-(2-(1H-indol-3-yl)ethylamino)-2-(5-fluoropyridin-3-yl)-9H-purin-9-yl)propan-1-ol] gave an EC50 of 8 nM. Compound Cc1cc(CCNc2nc(-c3cncc(F)c3)nc3c2ncn3C(C)CO)ccc1O (stereo not shown) [Example 200] has an EC50 of 1 nM. For CC(C)n1cnc2c(NCCc3ccc(O)cc3)nc(-c3cncs3)nc21 [Example 120], the EC50 was 1400 nM. CC(C)n1cnc2c(NCCc3ccc(O)cc3)nc(-c3ccc(F)nc3)nc21 [Example 34] gave an EC50 of 160 nM. For CC(C)n1ncc2c(NCCc3ccc(O)cc3)nc(-c3csc4ccccc34)nc21 [Example 135], the EC50 was 380 nM. In the case of CC(C)n1cnc2c(NCCc3ccc(O)cc3)nc(-c3cncc(S(C)(=O)=O)c3)nc21 [Example 46], the EC50 is reported as 650 nM. CC(C)n1cnc2c(NCCc3ccc(O)cc3)nc(-c3cccnc3)nc21 [Example 15] showed an EC50 of 190 nM. In the case of N#Cc1cncc(-c2nc(NCCc3ccc(O)cc3)c3ncn(C4COC4)c3n2)c1 [Example 133], the EC50 is reported as 180 nM. Work on CC(C)n1cnc2c(NCCc3ccc(O)cc3)nc(-c3cncc(F)c3)cc21 [Example 161, 4-(2-(6-(5-Fluoropyridin-3-yl)-1-isopropyl-1H-imidazo[4,5-c]pyridin-4-ylamino)ethyl)phenol] yielded an EC50 of 170 nM. CCC(C)n1cnc2c(NCCc3c[nH]c4ccccc34)nc(-n3ccnc3C)nc21 (stereo not shown) [Example 178] showed an EC50 of 3 nM. CC(C)n1cnc2c(NCCNC(N)=O)nc(-c3csc4ccccc34)nc21 [Example 89] was tested, and the EC50 was 1400 nM. Oc1ccc(CCNc2nc(-c3csc4ccccc34)nc3c2ncn3C2COC2)cc1 [Example 151] showed an EC50 of 170 nM. Compound CC[C@@H](C)n1cnc2c(NCCc3c[nH]c4ccccc34)nc(-c3cncc(C)c3)nc21 [Example 131R] has an EC50 of 3 nM. Work on Oc1ccc(CCNc2nc(-c3csc4ccccc34)nc3c2ncn3[C@@H]2CCOC2)cc1 [Example 153, (R)-4-(2-(2-(benzo[b]thiophen-3-yl)-9-(tetrahydrofuran-3-yl)-9H-purin-6-ylamino)ethyl)phenol] yielded an EC50 of 220 nM. Compound CCc1nccn1-c1nc(NCCc2ccc(O)cc2)c2ncn(C(C)C)c2n1 [Example 180] has an EC50 of 130 nM. In the case of CC(Cc1ccc(O)cc1)Nc1nc(-c2cccnc2)nc2c1ncn2C(C)C (stereo not shown) [Example 95], the EC50 is reported as 2300 nM. Work on CC(C)n1cnc2c(NCCc3c[nH]c4cc(O)ccc34)nc(-c3cncc(F)c3)nc21 [Example 182] yielded an EC50 of 5100 nM. Cc1cc(CCNc2nc(-c3cccnc3)nc3c2ncn3C(C)C)n[nH]1 [Example 126] gave an EC50 of 5000 nM. Work on Cc1cncc(-c2nc(NCCc3ccc(O)cc3)c3ncn(C(C)C)c3n2)c1 [Example 45] yielded an EC50 of 63 nM. CC(C)n1cnc2c(NCCCc3cn[nH]c3)nc(-c3cccnc3)nc21 [Example 73] gave an EC50 of 8200 nM.

— patent US9580426B2, “Compounds that expand hematopoietic stem cells” (Novartis AG, priority 2008, dated 2017)
